Measured values reported in article PMC9508125, “The evolutionary advantage of an aromatic clamp in plant family 3 glycoside exo-hydrolases” (Nature Communications, 2022).
Where a chain is given by its changes, count along the chain named.

What was measured:
Assay in all cases: Relative rates of hydrolysis of poly-, oligosaccharides and aryl-glycosides
Format in all cases: biochemical
[1] = target: T1, HvExoI W286Y mutant (Hordeum vulgare, UniProt Q9XEI3, W311Y); conditions: substance is the substrate, nd = activity not detected
T1 sequence (Q9XEI3 26-630 W311Y): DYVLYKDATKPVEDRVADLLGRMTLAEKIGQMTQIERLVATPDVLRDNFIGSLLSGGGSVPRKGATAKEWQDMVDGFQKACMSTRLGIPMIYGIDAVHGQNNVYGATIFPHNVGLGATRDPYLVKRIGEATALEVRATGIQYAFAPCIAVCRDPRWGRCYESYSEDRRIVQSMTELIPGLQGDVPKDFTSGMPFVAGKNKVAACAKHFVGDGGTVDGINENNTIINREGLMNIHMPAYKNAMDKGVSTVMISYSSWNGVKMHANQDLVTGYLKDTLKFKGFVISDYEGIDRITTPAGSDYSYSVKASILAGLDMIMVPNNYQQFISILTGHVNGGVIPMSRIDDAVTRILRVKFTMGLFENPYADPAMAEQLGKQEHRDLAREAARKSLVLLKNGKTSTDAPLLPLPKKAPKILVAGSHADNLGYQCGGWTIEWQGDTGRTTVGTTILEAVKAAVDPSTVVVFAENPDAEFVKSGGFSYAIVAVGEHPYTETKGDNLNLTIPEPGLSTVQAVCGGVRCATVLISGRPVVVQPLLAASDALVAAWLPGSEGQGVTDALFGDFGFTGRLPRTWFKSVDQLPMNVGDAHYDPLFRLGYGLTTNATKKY
Protocol: (§1) Dependency of activities of WT and mutant HvExoI on pH (McIlvaine buffers in the pH range of 3.5–8.5 at 30 °C) and temperature (100 mM sodium acetate buffer, pH 5.25, temperature range 0–80 °C, 15 min incubations) were determined using 0.2% (w/v) 4NP-Glc[21],[59]. Relative rates of hydrolysis of β-linked poly-, oligosaccharides, and aryl-glucosides were determined using near-homogenous HvExoI at 50 pmoles. […] Kinetic parameters were calculated from the analyses of Michaelis-Menten plots with Grafit 7.0.3[62] and processed by a proportional weighted fit, using nonlinear regression. The relative rates of hydrolysis, kinetic, and inhibition data were rounded to one or two decimal points (Supplementary Tables 2–4).

[2] = target: T2, HvExoI W434H mutant (Hordeum vulgare, UniProt Q9XEI3, W459H); conditions: substance is the substrate
T2 sequence (Q9XEI3 26-630 W459H): T1 sequence (Q9XEI3 26-630 W311Y) with Y286W, W434H
Protocol: as §1

[3] = target: T3, HvExoI W286F/W434F mutant (Hordeum vulgare, UniProt Q9XEI3, W311F/W459F); conditions: substance is the substrate, nd = activity not detected
T3 sequence (Q9XEI3 26-630 W311F/W459F): T1 sequence (Q9XEI3 26-630 W311Y) with Y286F, W434F
Protocol: as §1

[4] = target: T4, HvExoI W434F mutant (Hordeum vulgare, UniProt Q9XEI3, W459F); conditions: substance is the substrate, nd = activity not detected
T4 sequence (Q9XEI3 26-630 W459F): T1 sequence (Q9XEI3 26-630 W311Y) with Y286W, W434F
Protocol: as §1

Structure (SMILES) | Activity (relative rate of hydrolysis) [1] [μmole/min per mg protein] | Activity (relative rate of hydrolysis) [2] [μmole/min per mg protein] | Activity (relative rate of hydrolysis) [3] [μmole/min per mg protein] | Activity (relative rate of hydrolysis) [4] [μmole/min per mg protein]
OC[C@H]1O[C@@H](O[C@@H]2[C@@H](O)[C@H](O[C@@H]3[C@@H](O)[C@H](O[C@@H]4[C@@H](O)[C@H](O[C@@H]5[C@@H](O)[C@H](O[C@H]6[C@H](O)[C@@H](CO)OC(O)[C@@H]6O)O[C@H](CO)[C@H]5O)O[C@H](CO)[C@H]4O)O[C@H](CO)[C@H]3O)O[C@H](CO)[C@H]2O)[C@H](O)[C@@H](O)[C@@H]1O (stereo partly shown) [Laminarihexaose] | 15.8 ± 0.1 | 1.5 ± 0.1 | 0.5 ± 0.1 | 15.8 ± 1.0
OC[C@H]1O[C@@H](O[C@H]2[C@H](O)[C@@H](O)[C@H](O[C@H]3[C@H](O)[C@@H](O)C(O)O[C@@H]3CO)O[C@@H]2CO)[C@H](O)[C@@H](O)[C@@H]1O (stereo partly shown) [Cellotriose] | 5.6 ± 0.1 | 0.3 ± 0.03 | 0.02 ± 0.002 | 1.2 ± 0.3
OC[C@H]1O[C@@H](O[C@H]2C(O)O[C@H](CO)[C@@H](O)[C@@H]2O)[C@H](O)[C@@H](O)[C@@H]1O (stereo partly shown) [Sophorose] | 12.5 ± 0.2 | 0.6 ± 0.1 | 0.3 ± 0.03 | 6.6 ± 0.4
OC[C@H]1O[C@@H](O[C@H]2[C@H](O)[C@@H](CO)OC(O)[C@@H]2O)[C@H](O)[C@@H](O)[C@@H]1O (stereo partly shown) [Laminaribiose] | 13.9 ± 0.1 | 0.8 ± 0.04 | 0.5 ± 0.1 | 14.9 ± 1.7
OC[C@H]1O[C@@H](O[C@H]2[C@H](O)[C@@H](O)[C@H](O[C@H]3[C@H](O)[C@@H](O)[C@H](O[C@H]4[C@H](O)[C@@H](O)C(O)O[C@@H]4CO)O[C@@H]3CO)O[C@@H]2CO)[C@H](O)[C@@H](O)[C@@H]1O (stereo partly shown) [Cellotetraose] | 6.3 ± 1.1 | 0.2 ± 0.01 | 0.02 ± 0.001 | 1.9 ± 0.1
OC[C@H]1O[C@@H](O[C@H]2[C@H](O)[C@@H](O)[C@H](O[C@H]3[C@H](O)[C@@H](O)[C@H](O[C@H]4[C@H](O)[C@@H](O)[C@H](O[C@H]5[C@H](O)[C@@H](O)C(O)O[C@@H]5CO)O[C@@H]4CO)O[C@@H]3CO)O[C@@H]2CO)[C@H](O)[C@@H](O)[C@@H]1O (stereo partly shown) [Cellopentaose] | 5.8 ± 0.2 | 0.2 ± 0.01 | 0.02 ± 0.001 | 1.7 ± 0.1
OC[C@H]1O[C@@H](O[C@H]2[C@H](O)[C@@H](O)[C@H](O[C@H]3[C@H](O)[C@@H](O)[C@H](O[C@H]4[C@H](O)[C@@H](O)[C@H](O[C@H]5[C@H](O)[C@@H](O)[C@H](O[C@H]6[C@H](O)[C@@H](O)C(O)O[C@@H]6CO)O[C@@H]5CO)O[C@@H]4CO)O[C@@H]3CO)O[C@@H]2CO)[C@H](O)[C@@H](O)[C@@H]1O (stereo partly shown) [Cellohexaose] | 7.0 ± 0.1 | 0.3 ± 0.02 | 0.01 ± 0.001 | 1.9 ± 0.1
OC[C@H]1O[C@@H](O[C@@H]2[C@@H](O)[C@H](O[C@@H]3[C@@H](O)[C@H](O[C@@H]4[C@@H](O)[C@H](O[C@@H]5[C@@H](O)[C@H](O[C@@H]6[C@@H](O)[C@H](O[C@@H]7[C@@H](O)[C@H](O)O[C@H](CO)[C@H]7O)O[C@H](CO)[C@H]6O)O[C@H](CO)[C@H]5O)O[C@H](CO)[C@H]4O)O[C@H](CO)[C@H]3O)O[C@H](CO)[C@H]2O)[C@H](O)[C@@H](O)[C@@H]1O [Laminariheptaose] | 14.5 ± 2.0 | 1.6 ± 0.1 | 0.5 ± 0.04 | 13.5 ± 0.4
O=[N+]([O-])c1ccc(O[C@@H]2O[C@H](CO)[C@@H](O)[C@H](O)[C@H]2O)cc1 [4NP-Glc, 4-nitrophenyl β-D-glucopyranoside] | 19.6 ± 0.01 | 2.4 ± 0.2 | 0.5 ± 0.02 | 5.0 ± 0.01
OC[C@H]1O[C@@H](O[C@@H]2[C@@H](O)[C@H](O[C@@H]3[C@@H](O)[C@H](O[C@H]4[C@H](O)[C@@H](CO)OC(O)[C@@H]4O)O[C@H](CO)[C@H]3O)O[C@H](CO)[C@H]2O)[C@H](O)[C@@H](O)[C@@H]1O (stereo partly shown) [Laminaritetraose] | 13.8 ± 0.1 | 1.4 ± 0.1 | 0.4 ± 0.04 | 15.0 ± 1.5
